{
  "source": "patent US11760762B2",
  "about": "“Thienopyranones and furanopyranones as kinase, bromodomain, and checkpoint inhibitors” (SignalRx Pharmaceuticals, Inc., priority 2017, dated 2023)",
  "key": {"[1]": {"test_system": "Huh7", "assay": "Hepatocellular carcinoma cell viability, AlamarBlue", "assay_type": "cell-based", "conditions": "Homo sapiens, Huh-7; 24 hours; read-out: Hepatocarcinoma Cell Line IC50 Values Huh7", "procedure": "(§1) Cells were seeded into 96-well plate at 1×10^4 cell per well in complete medium+10% FCS and incubated for 24 hours prior to the addition of compounds at concentrations ranging from 50 μM to 50 nM. Cell viability was quantitated 24 hours after the addition of compounds using AlamarBlue® viable cell detection reagent. IC50 curves were determined using Graphpad Prism software."}, "[2]": {"test_system": "HepG2", "assay": "Hepatocellular carcinoma cell viability, AlamarBlue", "assay_type": "cell-based", "conditions": "Homo sapiens, 24 hours, read-out: Hepatocarcinoma Cell Line IC50 Values HepG2", "procedure": "as §1"}, "[3]": {"test_system": "Hep3B", "assay": "Hepatocellular carcinoma cell viability, AlamarBlue", "assay_type": "cell-based", "conditions": "Homo sapiens, 24 hours, read-out: Hepatocarcinoma Cell Line IC50 Values Hep3B", "procedure": "as §1"}, "[4]": {"test_system": "Hepatocellular carcinoma, Neuroblastoma, and Mantle Cell lymphoma cell lines", "assay": "Percent viability versus concentration, comparison with Palbociclib and combination", "assay_type": "cell-based", "procedure": "The percent viability versus concentration experimental procedures for hepatocellular carcinoma cell lines, neuroblastoma cell lines, and Mantle cell lymphoma cell lines was performed as described in example 6, example 4, and example 5, respectively."}, "[5]": {"test_system": "Jeko-1", "assay": "Mantle cell lymphoma cell viability, AlamarBlue", "assay_type": "cell-based", "procedure": "(§2) Mantle cell lymphoma cell lines Granta, Mino and Jeko-1 were seeded at a density of 2500 cells/0.1 mL per well in a 96-well plate. Compounds 1 or Palbociclib were added post-plating at 50 μM-50 nM concentrations for 48 hours followed by addition of AlamarBlue® and incubation of plates at 37° C. in 5% CO2 for 6 hours. Fluorescence signals were read as emission at 590 nm after excitation at 560 nm. IC50 for each cell line was determined using Graphpad Prism software module."}, "[6]": {"test_system": "Mino", "assay": "Mantle cell lymphoma cell viability, AlamarBlue", "assay_type": "cell-based", "procedure": "as §2"}, "[7]": {"test_system": "Granta", "assay": "Mantle cell lymphoma cell viability, AlamarBlue", "assay_type": "cell-based", "procedure": "as §2"}, "[8]": {"assay": "Oral pharmacokinetic (PK) study (Quintara Discovery)", "assay_type": "in vivo", "conditions": "plasma, oral gavage 30 mg/kg", "description": "The in vivo anticancer activity displaying drug like properties also bears this out as shown in FIG. 9 and the corresponding example."}, "[9]": {"test_system": "Huh7 cells", "assay": "Huh7 tumor implantation in NGS mice, safety and efficacy", "conditions": "30 mg/kg oral gavage, 5 times per week for 2 weeks", "source_text": "1×10^7 Huh7 cells were implanted into NGS mice. When tumors reached ˜100 mm^3 after 14 days of tumor implantation, animals were divided into four groups (n=8 per group)."}, "[10]": {"target": "PIM1 (Homo sapiens, UniProt P11309)", "sequence (P11309 whole entry, species assumed)": "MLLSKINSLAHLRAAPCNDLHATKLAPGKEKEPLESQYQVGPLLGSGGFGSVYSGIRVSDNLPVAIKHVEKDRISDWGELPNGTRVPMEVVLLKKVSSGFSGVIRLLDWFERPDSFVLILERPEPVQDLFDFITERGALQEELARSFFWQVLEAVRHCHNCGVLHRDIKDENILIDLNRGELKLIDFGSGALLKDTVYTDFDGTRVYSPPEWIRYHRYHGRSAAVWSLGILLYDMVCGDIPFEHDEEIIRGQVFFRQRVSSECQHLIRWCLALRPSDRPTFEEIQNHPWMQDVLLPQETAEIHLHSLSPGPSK", "assay": "PIM1 inhibition", "assay_type": "biochemical"}, "[11]": {"test_system": "Huh7 cells", "assay": "Western blot signaling in IGF-1 stimulated Huh7 cells (p-AKT, pRB)", "assay_type": "cell-based", "conditions": "Huh7, serum starved, IGF-1 stimulation 30 min", "procedure": "The hepatocellular carcinoma cell line, Huh7 was serum starved overnight in serum free medium. Cells were seeded into a 96 well tissue culture plate at 1×10^4 cells/well and pulsed with IGF-1 stimulation for 30 min at 37° C. at which time lysates were generated for SDS PAGE analysis. Western blot analysis was performed for p-AKT, AKT, pRB, RB and beta actin as loading control."}, "[12]": {"test_system": "Huh7 2H cell line", "assay": "Huh7 2H cell viability", "assay_type": "cell-based", "conditions": "Homo sapiens, Huh-7, 2 h", "procedure": "as §1\nThe procedures of example 6 were followed except using the Huh7 2H cell line."}, "[13]": {"test_system": "Mino and Granta cells", "assay": "Western blot PI3K and CDK4/cyclin D/Rb signaling in mantle cell lymphoma cells", "assay_type": "cell-based", "conditions": "24 hours", "description": "Cells were lysed in RIPA buffer and equal protein was loaded on SDS-PAGE gel followed by western blotting using p-AKT-Ser473, AKT, pRB-S780/811, RB, pP70S6K. β-actin served as loading control."}, "[14]": {"target": "T1, CDK9 (Homo sapiens, UniProt P50750)", "T1 construct": "Reaction Biology Corp., Malvern, PA (contract assay service)", "assay": "Cyclin dependent kinase inhibition (Reaction Biology Corp.)", "assay_type": "biochemical", "procedure": "(§3) PI3K-alpha, PI3K-beta, PI3K-gamma, and PI3K-delta inhibition activity was determined by Thermo Fisher Scientific-Biosciences Life Sciences Solutions, Madison, WI The bromodomain protein inhibition (binding domain 1 and 2 of BRD4) was determined by Reaction Biology Corp., Malvern, PA The cyclin dependent kinase inhibition on proteins such as CDK2, CDK4, CDK6, and CDK9 was determined by Reaction Biology Corp., Malvern, PA."}, "[15]": {"target": "T2, CDK2 (Homo sapiens, UniProt P24941)", "T2 construct": "Reaction Biology Corp., Malvern, PA (contract assay service)", "assay": "Cyclin dependent kinase inhibition (Reaction Biology Corp.)", "assay_type": "biochemical", "procedure": "as §3"}, "[16]": {"test_system": "CHLA-255", "assay": "Neuroblastoma cell viability, Alamar Blue", "assay_type": "cell-based", "conditions": "Homo sapiens, 24 hours incubation", "procedure": "(§4) IC50 for each cell line was determined using Graphpad Prism software module."}, "[17]": {"test_system": "SMS-KNCR", "assay": "Neuroblastoma cell viability, Alamar Blue", "assay_type": "cell-based", "conditions": "Homo sapiens, 24 hours incubation", "procedure": "as §4"}, "[18]": {"test_system": "CHLA-136", "assay": "Neuroblastoma cell viability, Alamar Blue", "assay_type": "cell-based", "conditions": "Homo sapiens, 24 hours incubation", "procedure": "as §4"}, "[19]": {"target": "T3, CDK4 (Homo sapiens, UniProt P11802)", "T3 construct": "Reaction Biology Corp., Malvern, PA (contract assay service)", "assay": "Cyclin dependent kinase inhibition (Reaction Biology Corp.)", "assay_type": "biochemical", "procedure": "as §3\n(§5) The compounds of the invention were characterized by their ability to inhibit the target proteins using third party vendors offering such services. PI3K-alpha, PI3K-gamma, and PI3K-delta inhibition activity was determined by Thermo Fisher Scientific-Biosciences Life Sciences Solutions, Madison, WI. […] NI=no inhibition detected up to 50 μM or IC50 not reached at 50 μM. ND=not done."}, "[20]": {"target": "T4, CDK6 (Homo sapiens, UniProt Q00534)", "T4 construct": "Reaction Biology Corp., Malvern, PA (contract assay service)", "assay": "Cyclin dependent kinase inhibition (Reaction Biology Corp.)", "assay_type": "biochemical", "procedure": "as §3, §5"}, "[21]": {"target": "T5, PI3K-delta (Homo sapiens, UniProt O00329)", "T5 construct": "Thermo Fisher Scientific-Biosciences Life Sciences Solutions, Madison, WI (contract assay service)", "assay": "PI3K inhibition (Thermo Fisher Scientific)", "assay_type": "biochemical", "conditions": "10-point curve, grouped by potency; read-out: IC50 P13K δ", "procedure": "as §3, §5"}, "[22]": {"target": "T6, PI3K-gamma (Homo sapiens, UniProt P48736)", "T6 construct": "Thermo Fisher Scientific-Biosciences Life Sciences Solutions, Madison, WI (contract assay service)", "assay": "PI3K inhibition (Thermo Fisher Scientific)", "assay_type": "biochemical", "conditions": "10-point curve, grouped by potency; read-out: IC50 P13K γ", "procedure": "as §3, §5"}, "[23]": {"target": "DNA-PK (Homo sapiens, UniProt P78527)", "assay": "DNA-PK inhibition", "assay_type": "biochemical"}, "[24]": {"conditions": "10-point curve, grouped by potency"}},
  "note": "Read-outs that look alike come from different tables or passages of the source.",
  "data": [
    {"smiles": "CN(C)C(=O)c1cc2cnc(Nc3ccc(-c4csc5c(=O)cc(N6CCOCC6)oc45)cc3)nc2n1C1CCCC1", "note": "[Compound 1, {1-Cyclopentyl-6-[p-(5-morpholino-7-oxo-4-oxa-1-thia-3-indenyl)phenylamino]-1,5,7-triaza-1H-inden-2-yl} (dimethylamino) formaldehyde]", "values": [
      {"measurement": "IC50", "setting": "[1]", "result": 0.55, "unit": "µM"},
      {"measurement": "IC50", "setting": "[2]", "result": 4.2, "unit": "µM"},
      {"measurement": "IC50", "setting": "[3]", "result": 1.1, "unit": "µM"},
      {"measurement": "cell viability compared with Palbociclib", "setting": "[4]; Hepatocellular carcinoma, Neuroblastoma, Mantle Cell lymphoma cell lines (FIG. 8A-8C)", "result": "performed substantially better than Palbociclib"},
      {"measurement": "cell viability compared with combination BKM120, JQ1, Palbociclib", "setting": "[4]; hepatocellular carcinoma cells (FIG. 8D)", "result": "performed substantially better"},
      {"measurement": "IC50", "setting": "[5]; Homo sapiens, JeKo-1, 48 hours, read-out: Mantle Cell Line IC50 Values Jeko-1", "result": 0.851, "unit": "µM"},
      {"measurement": "times more potent than Palbociclib, Jeko-1", "setting": "[5]; ratio of IC50 values", "result": 8.7, "unit": "times"},
      {"measurement": "IC50", "setting": "[6]; Homo sapiens, MINO, 48 hours, read-out: Mantle Cell Line IC50 Values Mino", "result": 0.583, "unit": "µM"},
      {"measurement": "times more potent than Palbociclib, Mino", "setting": "[6]; ratio of IC50 values", "result": 82.1, "unit": "times"},
      {"measurement": "IC50", "setting": "[7]; 48 hours, read-out: Mantle Cell Line IC50 Values Granta", "result": 0.58, "unit": "µM"},
      {"measurement": "times more potent than Palbociclib, Granta", "setting": "[7]; ratio of IC50 values", "result": 17.7, "unit": "times"},
      {"measurement": "concentration at 24 h", "setting": "[8]; 24 hours", "result": 63, "unit": "nM"},
      {"measurement": "AUC(0-inf)", "setting": "[8]; Hot Rod Formulation Kit #8", "result": 3520, "unit": "ng·h/mL"},
      {"measurement": "Cmax", "setting": "[8]; Hot Rod Formulation Kit #8", "result": 1400, "unit": "nM"},
      {"measurement": "Tmax", "setting": "[8]; Hot Rod Formulation Kit #8", "result": 0.5, "unit": "h"},
      {"measurement": "half-life", "setting": "[8]; Hot Rod Formulation Kit #8, read-out: T1/2 (half-life) (converted)", "result": 10.4, "unit": "h"},
      {"measurement": "in vivo anticancer efficacy (Huh7 tumors)", "setting": "[9]", "result": "comparable to the efficacy of 3 separate cognate inhibitors"},
      {"measurement": "IC50", "setting": "[10]", "result": 0.035, "unit": "µM"},
      {"measurement": "phosphorylation of CDK target RB (pRB), Western blot", "setting": "[11]", "result": "blocks phosphorylation"},
      {"measurement": "phosphorylation of PI3K target AKT (p-AKT), Western blot", "setting": "[11]", "result": "blocks phosphorylation"},
      {"measurement": "IC50", "setting": "[12]", "result": 0.495, "unit": "µM"},
      {"measurement": "PI3K-AKT signaling (p-AKT), Western blot", "setting": "[13]", "result": "inhibits"},
      {"measurement": "cyclin D/RB signaling (phosphorylation of RB), Western blot", "setting": "[13]", "result": "inhibits"},
      {"measurement": "IC50", "setting": "[14]", "result": 0.002, "unit": "µM"},
      {"measurement": "IC50", "setting": "[15]", "result": 0.5, "unit": "µM"},
      {"measurement": "IC50", "setting": "[16]", "result": 0.385, "unit": "µM"},
      {"measurement": "IC50", "setting": "[17]", "result": 0.962, "unit": "µM"},
      {"measurement": "IC50", "setting": "[18]", "result": 4.5, "unit": "µM"},
      {"measurement": "IC50", "setting": "[19]", "result": "< 0.00254", "unit": "µM"},
      {"measurement": "IC50", "setting": "[19]; [24]", "result": "< 0.1", "unit": "µM"},
      {"measurement": "IC50", "setting": "[20]", "result": 0.00326, "unit": "µM"},
      {"measurement": "IC50", "setting": "[20]; [24]", "result": "< 0.1", "unit": "µM"},
      {"measurement": "IC50", "setting": "[21]", "result": "< 0.1", "unit": "µM"},
      {"measurement": "IC50", "setting": "[22]", "result": "1 to 5", "unit": "µM"},
      {"measurement": "IC50", "setting": "[23]", "result": 0.021, "unit": "µM"}
    ]}
  ]
}
